target: T1, human DGAT1 (Homo sapiens, UniProt O75907); test: Human Enzyme Assay (DGAT1 inhibition, 14C oleoyl CoA incorporation into triolein); assay type: biochemical; settings: human DGAT1 expressed in sf9 insect cell membranes; Examples 5 to 24; rounded to 2 decimal places
T1 construct: made in house; host or cells: Sf9 insect cells (baculovirus), membrane fraction
T1 sequence (O75907 1-488): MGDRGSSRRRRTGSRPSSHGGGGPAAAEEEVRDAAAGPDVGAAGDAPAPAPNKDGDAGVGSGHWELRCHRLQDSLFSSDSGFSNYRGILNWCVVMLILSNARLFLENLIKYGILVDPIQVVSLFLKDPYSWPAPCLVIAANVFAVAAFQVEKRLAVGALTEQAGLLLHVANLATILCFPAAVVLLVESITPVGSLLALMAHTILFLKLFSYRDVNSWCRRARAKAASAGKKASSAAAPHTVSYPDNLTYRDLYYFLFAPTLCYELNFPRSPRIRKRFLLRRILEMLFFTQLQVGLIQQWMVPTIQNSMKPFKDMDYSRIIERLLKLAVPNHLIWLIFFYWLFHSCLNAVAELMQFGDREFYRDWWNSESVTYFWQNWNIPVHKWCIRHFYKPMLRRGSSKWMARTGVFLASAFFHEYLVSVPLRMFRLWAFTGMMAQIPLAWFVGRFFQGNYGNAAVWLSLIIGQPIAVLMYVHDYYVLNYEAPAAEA
Procedure: Briefly, sf9 cells were infected with recombinant baculovirus containing human DGAT1 coding sequences and harvested after 48 h. Cells were lysed by sonication and membranes isolated by centrifuging at 28000 rpm for 1 h at 4° C. on a 41% sucrose gradient. The membrane fraction at the interphase was collected, washed, and stored in liquid nitrogen.
The reaction was started by adding ^14C oleoyl coenzyme A (30 μM final concentration) and incubated at room temperature for 30 minutes. The reaction was stopped by adding 200 μl 2-propanol:heptane 7:1. Radioactive triolein product was separated into the organic phase by adding 300 μl heptane and 100 μl 0.1 M carbonate buffer pH 9.5. DGAT1 activity was quantified by counting aliquots of the upper heptane layer by liquid scintillography.

Row | IC50 [nM] | Structure (SMILES)
1 | 240 | N#Cc1c(Cl)cccc1-c1ccc(N2CCOc3ncnc(N)c3C2=O)cc1 [Example 15, 4′-(4-amino-5-oxo-7,8-dihydropyrimido[5,4-f][1,4]oxazepin-6(5H)-yl)-3-chlorobiphenyl-2-carbonitrile]
2 | 70 | Cc1ccc(Cl)cc1-c1ccc(N2CCOc3ncnc(N)c3C2=O)cc1 [Example 8, 4-amino-6-(5′-chloro-2′-methylbiphenyl-4-yl)-7,8-dihydropyrimido[5,4-f][1,4]oxazepin-5(6H)-one]
3 | 50 | N#Cc1cc(Cl)ccc1-c1ccc(N2CCOc3ncnc(N)c3C2=O)cc1 [Example 22, 4′-(4-Amino-5-oxo-7,8-dihydropyrimido[5,4-f][1,4]oxazepin-6(5H)-yl)-4-chlorobiphenyl-2-carbonitrile]
4 | 40 | Nc1ncnc2c1C(=O)N(c1ccc(-c3ccc(S(N)(=O)=O)cc3Cl)cc1)CCO2 [Example 18, 4′-(4-Amino-5-oxo-7,8-dihydropyrimido[5,4-f][1,4]oxazepin-6(5H)-yl)-2-chlorobiphenyl-4-sulfonamide]
5 | 400 | Cc1c(Cl)cccc1-c1ccc(N2CCOc3ncnc(N)c3C2=O)cc1 [Example 6, 4-amino-6-(3′-chloro-2′-methylbiphenyl-4-yl)-7,8-dihydropyrimido[5,4-f][1,4]oxazepin-5(6H)-one]
6 | 80 | Cc1cc(Cl)ccc1-c1ccc(N2CCOc3ncnc(N)c3C2=O)cc1 [Example 7, 4-amino-6-(4′-chloro-2′-methylbiphenyl-4-yl)-7,8-dihydropyrimido[5,4-f][1,4]oxazepin-5(6H)-one]
7 | 100 | N#Cc1ccc(Cl)cc1-c1ccc(N2CCOc3ncnc(N)c3C2=O)cc1 [Example 14, 4′-(4-amino-5-oxo-7,8-dihydropyrimido[5,4-f][1,4]oxazepin-6(5H)-yl)-5-chlorobiphenyl-2-carbonitrile]

same assay, conditions: human DGAT1 expressed in sf9 insect cell membranes; Examples 25 to 59; rounded to 2 decimal places

Row | IC50 [nM] | Structure (SMILES)
8 | 320 | Nc1ncnc2c1C(=O)N(c1ccc(-c3cccc(F)c3F)cc1)CCO2 [Example 25, 4-Amino-6-(2′,3′-difluorobiphenyl-4-yl)-7,8-dihydropyrimido[5,4-f][1,4]oxazepin-5(6H)-one]
9 | 110 | Nc1ncnc2c1C(=O)N(c1ccc(-c3cc(F)ccc3F)cc1)CCO2 [Example 26, 4-Amino-6-(2′,5′-difluorobiphenyl-4-yl)-7,8-dihydropyrimido[5,4-f][1,4]oxazepin-5(6H)-one]
10 | 40 | Nc1ncnc2c1C(=O)N(c1ccc(-c3ccc(Cl)cc3F)cc1)CCO2 [Example 27, 4-Amino-6-(4′-chloro-2′-fluorobiphenyl-4-yl)-7,8-dihydropyrimido[5,4-f][1,4]oxazepin-5(6H)-one]
11 | 60 | Nc1ncnc2c1C(=O)N(c1ccc(-c3ccc(F)cc3F)cc1)CCO2 [Example 29, 4-Amino-6-(2′,4′-difluorobiphenyl-4-yl)-7,8-dihydropyrimido[5,4-f][1,4]oxazepin-5(6H)-one]

Further lines, the compound ahead of its results:

Row | Structure (SMILES) | IC50 [nM]
12 | C[C@@H]1CN(c2ccc(-c3ccccc3Cl)cc2)C(=O)c2c(N)ncnc2O1 [Example 44, (R)-4-Amino-6-(2′-chlorobiphenyl-4-yl)-8-methyl-7,8-dihydropyrimido[5,4-f][1,4]oxazepin-5(6H)-one] | 20
13 | Cc1nc(N)c2c(n1)OCCN(c1ccc(-c3ccccc3Cl)cc1)C2=O [Example 42, 4-Amino-6-(2′-chlorobiphenyl-4-yl)-2-methyl-7,8-dihydropyrimido[5,4-f][1,4]oxazepin-5(6H)-one] | 90
14 | C[C@@H]1CN(c2ccc(-c3c(F)cccc3Cl)c(F)c2)C(=O)c2c(N)ncnc2O1 [Example 56, (8R)-4-amino-6-(2′-chloro-2,6′-difluorobiphenyl-4-yl)-8-methyl-7,8-dihydropyrimido[5,4-f][1,4]oxazepin-5(6H)-one] | 10
15 | Nc1ncnc2c1C(=O)N(c1ccc(-c3cc(F)c(F)cc3F)cc1)CCO2 [Example 28, 4-Amino-6-(2′,4′,5′-trifluorobiphenyl-4-yl)-7,8-dihydropyrimido[5,4-f][1,4]oxazepin-5(6H)-one] | 130
16 | C[C@@H]1CN(c2ccc(-c3ccc(F)cc3F)c(F)c2)C(=O)c2c(N)ncnc2O1 [Example 53, (R)-4-Amino-8-methyl-6-(2,2′,4′-trifluorobiphenyl-4-yl)-7,8-dihydropyrimido[5,4-f][1,4]oxazepin-5(6H)-one] | 20
17 | C[C@@H]1CN(c2ccc(-c3ccc(C#N)cc3Cl)c(F)c2)C(=O)c2c(N)ncnc2O1 [Example 51, (R)-4′-(4-Amino-8-methyl-5-oxo-7,8-dihydropyrimido[5,4-f][1,4]oxazepin-6(5H)-yl)-2-chloro-2′-fluorobiphenyl-4-carbonitrile] | 20
18 | C[C@@H]1CN(c2ccc(-c3ccc(CN(C)S(C)(=O)=O)cc3Cl)cc2)C(=O)c2c(N)ncnc2O1 [Example 47, (R)—N-((4′-(4-amino-8-methyl-5-oxo-7,8-dihydropyrimido[5,4-f][1,4]oxazepin-6(5H)-yl)-2-chlorobiphenyl-4-yl)methyl)-N-methylmethanesulfonamide] | 50
19 | C[C@@H]1CN(c2ccc(-c3c(F)cccc3F)c(F)c2)C(=O)c2c(N)ncnc2O1 [Example 57, (R)-4-amino-8-methyl-6-(2,2′,6′-trifluorobiphenyl-4-yl)-7,8-dihydropyrimido[5,4-f][1,4]oxazepin-5(6H)-one] | 20
20 | C[C@@H]1CN(c2ccc(-c3ccccc3F)c(F)c2)C(=O)c2c(N)ncnc2O1 [Example 54, (R)-4-Amino-6-(2,2′-difluorobiphenyl-4-yl)-8-methyl-7,8-dihydropyrimido[5,4-f][1,4]oxazepin-5(6H)-one] | 20
21 | C[C@@H]1CN(c2ccc(-c3c(F)cccc3F)cc2)C(=O)c2c(N)ncnc2O1 [Example 49, (R)-4-amino-6-(2′,6′-difluorobiphenyl-4-yl)-8-methyl-7,8-dihydropyrimido[5,4-f][1,4]oxazepin-5(6H)-one] | 20
22 | C[C@@H]1CN(c2ccc(-c3ccc(CS(C)(=O)=O)cc3Cl)cc2)C(=O)c2c(N)ncnc2O1 [Example 48, (R)-4-Amino-6-(2′-chloro-4′-(methylsulfonylmethyl)biphenyl-4-yl)-8-methyl-7,8-dihydropyrimido[5,4-f][1,4]oxazepin-5(6H)-one] | 60
23 | C[C@@H]1CN(c2ccc(-c3ccc(Cl)cc3C#N)c(F)c2)C(=O)c2c(N)ncnc2O1 [Example 50, (R)-4′-(4-Amino-8-methyl-5-oxo-7,8-dihydropyrimido[5,4-f][1,4]oxazepin-6(5H)-yl)-4-chloro-2′-fluorobiphenyl-2-carbonitrile] | 40
24 | C[C@@H]1CN(c2ccc(-c3c(Cl)cccc3C#N)c(F)c2)C(=O)c2c(N)ncnc2O1 [Example 52, 4′-((R)-4-Amino-8-methyl-5-oxo-7,8-dihydropyrimido[5,4-f][1,4]oxazepin-6(5H)-yl)-6-chloro-2′-fluorobiphenyl-2-carbonitrile] | 70
25 | C[C@@H]1CN(c2ccc(-c3ccccc3Cl)c(C#N)c2)C(=O)c2c(N)ncnc2O1 [Example 59, (R)-4-(4-Amino-8-methyl-5-oxo-7,8-dihydropyrimido[5,4-f][1,4]oxazepin-6(5H)-yl)-2′-chlorobiphenyl-2-carbonitrile] | 20
26 | Cc1nc(N)c2c(n1)OCCN(c1ccc(-c3ccc(CNS(C)(=O)=O)cc3Cl)cc1)C2=O [Example 43, N-((4′-(4-amino-2-methyl-5-oxo-7,8-dihydropyrimido[5,4-f][1,4]oxazepin-6(5H)-yl)-2-chlorobiphenyl-4-yl)methyl)methanesulfonamide] | 100
27 | C[C@@H]1CN(c2ccc(-c3ccccc3Cl)c(F)c2)C(=O)c2c(N)ncnc2O1 [Example 55, (R)-4-Amino-6-(2′-chloro-2-fluorobiphenyl-4-yl)-8-methyl-7,8-dihydropyrimido[5,4-f][1,4]oxazepin-5(6H)-one] | 10
28 | C[C@@H]1CN(c2ccc(-c3ccc(CNS(C)(=O)=O)cc3Cl)cc2)C(=O)c2c(N)ncnc2O1 [Example 45, (R)—N-((4′-(4-amino-8-methyl-5-oxo-7,8-dihydropyrimido[5,4-f][1,4]oxazepin-6(5H)-yl)-2-chlorobiphenyl-4-yl)methyl)methanesulfonamide] | 60
29 | C[C@@H]1CN(c2ccc(-c3ccccc3F)cc2)C(=O)c2c(N)ncnc2O1 [Example 46, (R)-4-amino-6-(2′-fluorobiphenyl-4-yl)-8-methyl-7,8-dihydropyrimido[5,4-f][1,4]oxazepin-5(6H)-one] | 20

same assay, conditions: human DGAT1 expressed in sf9 insect cell membranes; usually mean of 2 measurements

Row | IC50 [nM] | Structure (SMILES)
30 | 35 | Nc1ncnc2c1C(=O)N(c1ccc(-c3ccc(S(N)(=O)=O)cc3Cl)cc1)CCO2 [Example 4, 4′-(4-Amino-5-oxo-7,8-dihydropyrimido[5,4-f][1,4]oxazepin-6(5H)-yl)-2-chlorobiphenyl-4-sulfonamide]

From US20110251173A1, “CHEMICAL COMPOUNDS” (AstraZeneca AB, priority 2010, published 2011)
